Values after ≈ are worked out from the molar mass of the structure shown. Where two headings read alike, the source gives them in different places. Non-standard residues stand in square brackets, D forms with d. Residues, ends and D or L forms follow the SMILES beside them. Cha = N[C@@H](CC1CCCCC1)C(=O)O; Cit = NC(=O)NCCC[C@H](N)C(=O)O; dDab = NCC[C@@H](N)C(=O)O; Orn = NCCC[C@H](N)C(=O)O; Dab = NCC[C@H](N)C(=O)O
Columns and labels:
[1] = test system: Pseudomonas aeruginosa (ATCC 27853); experiment: In vivo septicemia assay; design: species or system CD-1 mice; conditions: groups of 6 mice
Description: Groups of 6 CD-1 (Crl.) derived male mice weighing 24±2 g were used. The mice were each inoculated intravenously (IV) with an LD90-100 of Pseudomonas aeruginosa (ATCC 27853) (9×10^6 CFU/0.5 ml/mouse) in brain heart infusion broth without 5% mucin. Compound at doses of 5, 2.5, 1, 0.5, 0.25 and 0.1 mg/kg, vehicle (0.9% NaCl, 10 ml/kg) was administered subcutaneously (SC) to test animals at 1 hour after bacterial inoculation. Also, an additional group was treated twice with compound at a dose of 5 mg/kg at 1 and 6 hours after bacterial inoculation. Mortality was recorded once daily for 7 days following the bacterial inoculation and an increase of survival of the animals by 50 percent or more (^3 50%) after the bacterial inoculation, relative to vehicle control, indicates significant antimicrobial effect. The MED (ED50) was determined by nonlinear regression using Graph-Pad Prism (Graph Pad Software, USA).
Septicaemia experiment in mice: LD90-100 of Pseudomonas aeruginosa (ATCC 27853) (9×10^6 CFU/0.5 ml/mouse IV and after 1 h Ex. 1 s.c.
Septicaemia experiment in mice: LD90-100 of Pseudomonas aeruginosa (ATCC 27853) (9×10^6 CFU/0.5 ml/mouse IV), and after 1 and 5 h Ex. 40 s.c.
Septicaemia experiment in mice: LD90-100 of Pseudomonas aeruginosa (ATCC 27853) (9×10^6 CFU/0.5 ml/mouse IV), and after 1 and 5 h Ex. 50 s.c.

HELA cells (Acc57) = experiment: Cytotoxicity assay, MTT reduction (LC 50, GI 50); format: cell-based
Outline: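 Read-out was MTT reduction (A595) after 48 h peptide exposure (12.5–50 μM, triplicates) of HeLa cells plated at 7.0×10^3/well and precultured 24 h. Growth % was normalised to a time-zero reading. Linear trend interpolation gave the concentration at −50% growth (LC50) and at 50% growth (GI50).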

[2] = test system: human red blood cells (hRBC); experiment: Hemolysis; format: cell-based
[3] = test system: Pseudomonas aeruginosa P1021913; format: cell-based
Outline: (§1)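 Peptides were serially diluted two-fold in MH broth containing 0.02% BSA and combined 1:1 with bacterial suspension adjusted to roughly 10^6 CFU/ml, following a modified NCCLS microdilution protocol.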

[4] = test system: Pseudomonas aeruginosa IMP 1 Livermore 3140; format: cell-based
Outline: as §1

[5] = test system: Pseudomonas aeruginosa P1021903; format: cell-based
Outline: as §1

[6] = test system: Pseudomonas aeruginosa P8191900; format: cell-based
Outline: as §1

P. aeruginosa ATCC 27853 = format: cell-based, Pseudomonas aeruginosa
Outline: as §1

[7] = Plasma stability, rat plasma; format: in vitro ADME
[8] = Plasma stability, human plasma; format: in vitro ADME
[9] = average over the five P. aeruginosa strains, Mueller-Hinton broth

Compound | Average MIC (P. aeruginosa) | Dead ([1]; 2 × 1 mg/kg, after 1 and 5 h) | Survivors ([1]; 2 × 1 mg/kg, after 1 and 5 h) | Cytotoxicity GI50 Hela cells (HELA cells (Acc57)) | Hemolysis at 100 μg/ml [2]; 100 | MIC P. aeruginosa P1021913 ([3]; P1021913) | MIC P. aeruginosa IMP1 Livermore 3140 ([4]; IMP 1 Livermore 3140) | MIC P. aeruginosa P1021903 ([5]; P1021903) | MIC P. aeruginosa P8191900 ([6]; P8191900) | MIC P. aeruginosa ATCC 27853 (P. aeruginosa ATCC 27853; ATCC 27853) | other results
CC[C@H](C)[C@@H]1NC(=O)[C@H](Cc2c[nH]c3ccccc23)NC(=O)[C@H]([C@@H](C)O)NC(=O)[C@@H]2CCCN2C(=O)[C@H]2CCCN2C(=O)[C@H](CCC(N)=O)NC(=O)[C@H](C)NC(=O)[C@H](CCN)NC(=O)[C@H](CCN)NC(=O)[C@H](Cc2c[nH]c3ccccc23)NC(=O)[C@H](CCN)NC(=O)[C@H](CCN)NC(=O)[C@H](CCCCN)NC(=O)[C@H](CCC(N)=O)NC1=O [Example 40] (cyclo(TWIQK[Dab][Dab]W[Dab][Dab]AQ[dP]P)) | 0.55 µg/mL | 2 | 4 | 50 µM | 0.7% | 0.50 µg/mL (≈ 0.305 µM) | 1.00 µg/mL (≈ 0.611 µM) | 0.50 µg/mL (≈ 0.305 µM) | 0.50 µg/mL (≈ 0.305 µM) | 0.25 µg/mL (≈ 0.153 µM) | Dead ([1]; 2 × 0.1 mg/kg, after 1 and 5 h): 6; Survivors ([1]; 2 × 0.1 mg/kg, after 1 and 5 h): 0; Dead ([1]; 2 × 0.3 mg/kg, after 1 and 5 h): 6; Survivors ([1]; 2 × 0.3 mg/kg, after 1 and 5 h): 0; Dead ([1]; 2 × 3 mg/kg, after 1 and 5 h): 0; Survivors ([1]; 2 × 3 mg/kg, after 1 and 5 h): 6; Dead ([1]; 2 × 10 mg/kg, after 1 and 5 h): 0; Survivors ([1]; 2 × 10 mg/kg, after 1 and 5 h): 6
CC[C@H](C)[C@@H]1NC(=O)[C@H](Cc2c[nH]c3ccccc23)NC(=O)[C@H]([C@@H](C)O)NC(=O)[C@@H]2CCCN2C(=O)[C@H]2CCCN2C(=O)[C@H](CCN)NC(=O)[C@H](C)NC(=O)[C@H](CCN)NC(=O)[C@H](CCN)NC(=O)[C@H](Cc2c[nH]c3ccccc23)NC(=O)[C@H](CCN)NC(=O)[C@H](CCN)NC(=O)[C@H](CCCCN)NC(=O)[C@H](CCCCN)NC1=O [Example 24] (cyclo(TWIKK[Dab][Dab]W[Dab][Dab]A[Dab][dP]P)) |  |  |  |  |  |  |  |  |  |  | Average MIC (P. aeruginosa; [9]): 0.14 µg/mL; Stability rat Plasma t1/2 [7]: 5 h; Stability human Plasma t1/2 [8]: 5 h; Hemolysis at 100 μg/ml ([2]; 100 μg/ml of peptide): 0.1%; MIC P. aeruginosa P1021913 ([3]; Mueller-Hinton broth): 0.16 µg/mL (≈ 0.0994 µM); MIC P. aeruginosa IMP1 Livermore 3140 ([4]; Mueller-Hinton broth): 0.24 µg/mL (≈ 0.149 µM); MIC P. aeruginosa P1021903 ([5]; Mueller-Hinton broth): 0.08 µg/mL (≈ 0.0497 µM); MIC P. aeruginosa P8191900 ([6]; Mueller-Hinton broth): 0.16 µg/mL (≈ 0.0994 µM); MIC P. aeruginosa ATCC 27853 (P. aeruginosa ATCC 27853; Mueller-Hinton broth): 0.05 µg/mL (≈ 0.0311 µM)
Example 50: backbone-cyclized; P1-P12 Glu-Trp-Ile-Gln-Lys-Dab-Dab-Ser-Dab-Dab-Ala-Ser; template DPro-LPro; SEQ ID NO: 50 (cyclo(EWIQK[Dab][Dab]S[Dab][Dab]AS[dP]P); SMILES CC[C@H](C)[C@@H]1NC(=O)[C@H](Cc2c[nH]c3ccccc23)NC(=O)[C@H](CCC(=O)O)NC(=O)[C@@H]2CCCN2C(=O)[C@H]2CCCN2C(=O)[C@H](CO)NC(=O)[C@H](C)NC(=O)[C@H](CCN)NC(=O)[C@H](CCN)NC(=O)[C@H](CO)NC(=O)[C@H](CCN)NC(=O)[C@H](CCN)NC(=O)[C@H](CCCCN)NC(=O)[C@H](CCC(N)=O)NC1=O) |  | 5 | 1 | 50 µM |  |  |  |  |  |  | Average MIC (P. aeruginosa; [9]): 0.56 µg/mL; Dead ([1]; 2 × 0.1 mg/kg, after 1 and 5 h): 6; Survivors ([1]; 2 × 0.1 mg/kg, after 1 and 5 h): 0; Dead ([1]; 2 × 0.3 mg/kg, after 1 and 5 h): 6; Survivors ([1]; 2 × 0.3 mg/kg, after 1 and 5 h): 0; Dead ([1]; 2 × 3 mg/kg, after 1 and 5 h): 3; Survivors ([1]; 2 × 3 mg/kg, after 1 and 5 h): 3; Dead ([1]; 2 × 10 mg/kg, after 1 and 5 h): 0; Survivors ([1]; 2 × 10 mg/kg, after 1 and 5 h): 6; MIC P. aeruginosa P1021913 ([3]; Mueller-Hinton broth): 0.50 µg/mL; MIC P. aeruginosa IMP1 Livermore 3140 ([4]; Mueller-Hinton broth): 2.00 µg/mL; MIC P. aeruginosa P1021903 ([5]; Mueller-Hinton broth): 0.06 µg/mL; MIC P. aeruginosa P8191900 ([6]; Mueller-Hinton broth): 0.13 µg/mL; MIC P. aeruginosa ATCC 27853 (P. aeruginosa ATCC 27853; Mueller-Hinton broth): 0.09 µg/mL
Gentamycin [reference compound] |  | 1 | 5 |  |  |  |  |  |  |  | Dead ([1]; 1 mg/kg, 1 h after inoculation): 0; Survivors ([1]; 1 mg/kg, 1 h after inoculation): 6
CC[C@H](C)[C@@H]1NC(=O)[C@H](Cc2c[nH]c3ccccc23)NC(=O)[C@H]([C@@H](C)O)NC(=O)[C@@H]2CCCN2C(=O)[C@H]2CCCN2C(=O)[C@H](CCN)NC(=O)[C@H](C)NC(=O)[C@H](CCN)NC(=O)[C@H](CCN)NC(=O)[C@H](Cc2c[nH]c3ccccc23)NC(=O)[C@H](CCN)NC(=O)[C@@H](CCN)NC(=O)[C@H](CCCN)NC(=O)[C@H](CCN)NC1=O [Example 48] (cyclo(TWI[Dab][Orn][dDab][Dab]W[Dab][Dab]A[Dab][dP]P)) | 0.08 µg/mL |  |  | 50 µM | 0.2% | 0.13 µg/mL (≈ 0.083 µM) | 0.19 µg/mL (≈ 0.121 µM) | 0.02 µg/mL (≈ 0.0128 µM) | 0.03 µg/mL (≈ 0.0191 µM) | 0.02 µg/mL (≈ 0.0128 µM) | 
CC[C@H](C)[C@@H]1NC(=O)[C@H](Cc2c[nH]c3ccccc23)NC(=O)[C@H](CCCNC(N)=O)NC(=O)[C@@H]2CCCN2C(=O)[C@H]2CCCN2C(=O)[C@H](CCN)NC(=O)[C@H](C)NC(=O)[C@H](CCN)NC(=O)[C@H](CCN)NC(=O)[C@H](Cc2c[nH]c3ccccc23)NC(=O)[C@H](CCN)NC(=O)[C@H](CCN)NC(=O)[C@H](CCCCN)NC(=O)[C@H](CCN)NC1=O [Example 18] (cyclo([Cit]WI[Dab]K[Dab][Dab]W[Dab][Dab]A[Dab][dP]P)) | 0.28 µg/mL |  |  | 50 µM | 0.4% | 0.81 µg/mL (≈ 0.495 µM) | 0.30 µg/mL (≈ 0.183 µM) | 0.10 µg/mL (≈ 0.0611 µM) | 0.10 µg/mL (≈ 0.0611 µM) | 0.06 µg/mL (≈ 0.0367 µM) | 
CC[C@H](C)[C@@H]1NC(=O)[C@H](Cc2c[nH]c3ccccc23)NC(=O)[C@H]([C@@H](C)O)NC(=O)[C@@H]2CCCN2C(=O)[C@H]2CCCN2C(=O)[C@H](CCN)NC(=O)[C@H](CC2CCCCC2)NC(=O)[C@H](CCN)NC(=O)[C@H](CCN)NC(=O)[C@H](Cc2c[nH]c3ccccc23)NC(=O)[C@H](CCN)NC(=O)[C@H](CCN)NC(=O)[C@H](CCCCN)NC(=O)[C@H](CCN)NC1=O [Example 12] (cyclo(TWI[Dab]K[Dab][Dab]W[Dab][Dab][Cha][Dab][dP]P)) | >1 µg/mL |  |  | 50 µM | 0.7% | 0.75 µg/mL (≈ 0.451 µM) | >2 µg/mL | 2.00 µg/mL (≈ 1.2 µM) | 1.00 µg/mL (≈ 0.601 µM) | 0.40 µg/mL (≈ 0.241 µM) | 
CC[C@H](C)[C@@H]1NC(=O)[C@H](Cc2c[nH]c3ccccc23)NC(=O)[C@H]([C@@H](C)O)NC(=O)[C@@H]2CCCN2C(=O)[C@H]2CCCN2C(=O)[C@H](CCN)NC(=O)[C@H](C)NC(=O)[C@H](CCN)NC(=O)[C@H](CCN)NC(=O)[C@H](Cc2c[nH]c3ccccc23)NC(=O)[C@H](Cc2c[nH]cn2)NC(=O)[C@H](CCN)NC(=O)[C@H](CCCCN)NC(=O)[C@H](CCN)NC1=O [Example 21] (cyclo(TWI[Dab]K[Dab]HW[Dab][Dab]A[Dab][dP]P)) | 0.40 µg/mL |  |  | 50 µM | 0.4% | 0.31 µg/mL (≈ 0.192 µM) | 1.00 µg/mL (≈ 0.618 µM) | 0.21 µg/mL (≈ 0.13 µM) | 0.40 µg/mL (≈ 0.247 µM) | 0.09 µg/mL (≈ 0.0556 µM) | 
